Consider 19 compounds from patent US12521399B2, “Compound as voltage-gated sodium channel inhibitor” (Guangzhou Fermion Technology Co., Ltd., priority 2022, dated 2026).

For data set [1], the target named is T1, human Nav1.8 ion channel stably expressed by CHO cells (Homo sapiens, UniProt Q9Y5Y9).
T1 construct: expressed in transfected cells
In words: Blocking activity on sodium ion channel 1.8 (Nav1.8), manual whole-cell patch clamp. Format: cell-based. Particulars: Nav1.8 peak sodium current; for inhibition at 0.01 µM: 10 nM compound, read-out: Inhibition rate (%) @ 10 nM; for inhibition at 0.1 µM: 100 nM compound, read-out: Inhibition rate (%) @ 100 nM. As for the experimental part: Test Example A: Blocking activity of the compound of the present invention on sodium ion channel 1.8 (Nav1.8)
Experimental objective: to determine the rate of inhibition of the compound on the human Nav1.8 ion channel stably expressed by CHO cells
The compound was dissolved using DMSO to prepare a stock solution. The stock solution was diluted with an extracellular fluid (140 mM NaCl, 3.5 mM KCl, 1 mM MgCl2, 2 mM CaCl2), 10 mM D-glucose, 10 mM HEPES, 1.25 mM NaH2PO4 2H2O, pH=7.4 (NaOH)) to particular concentrations to be used in manual patch clamp testing.
A capillary glass tube was stretched to form a recording electrode using a microelectrode puller. A microelectrode manipulator was operated under an inverted microscope to contact the recording electrode to the cells, and negative suction pressure was applied to form a GQ seal. Once the GQ seal was formed, rapid capacitance compensation was performed, and then the negative pressure was continued to break the cell membrane, forming a whole cell recording mode. Slow capacitance was compensated for, and the film capacitance and series resistance were recorded. No leakage compensation was applied. Once the Nav1.8 current recorded in the whole cell was stabilized, administration of the compound was started. The compound was allowed to act at the first concentration for 5 min (or until the electric current stabilized), and then the second concentration was tested. For each test compound, two concentrations were tested.
The voltage stimulation protocol for whole-cell patch clamp recording of Nav1.8 sodium current was as follows: once the whole cell seal was formed, the cellular voltage was clamped at −120 mV for 30 ms. The clamping voltage was depolarized to 0 mV for 50 ms, and then the voltage was restored to −50 mV (for the specific voltage, reference was made to the half inactivation voltage in IV testing) for 8 s. […] Data acquisition was repeated every 20 s. The effect of the compound on the peak value of the sodium current was observed. The experimental data was collected by an EPC-10 amplifier (HEKA) and was stored in PatchMaster (HEKA) software.
A general note: The patch-clamp technique gives a direct electrical read-out from membranes.

The nature of data set [2]: Pharmacokinetic evaluation by intravenous injection or gavage in rats. Particulars: Sprague-Dawley (SD), rat, in vivo. As for the experimental part: Test Example B: Quantitative pharmacokinetic evaluation of the compound of the present invention administered by intravenous injection or gavage in rats.
The present inventors conducted pharmacokinetic evaluation of the compound of the present invention in rats.
The compound of the present invention was administered to the test animals as a solution of 5% DMSO+5% tween 80+90% physiological saline solution. The animals were fasted for 12 hours prior to the administration, but had free access to water. For the intravenous injection administration group, the administration dose was 1 mg/kg; for gavage administration, the administration dose was 10 mg/kg. Following administration, blood was intravenously collected from the animals (approximately 0.3 mL of blood) at the following time points: 0.083 h, 0.25 h, 0.5 h, 1.0 h, 2.0 h, 4.0 h, 8.0 h, and 24 h. The blood collection tubes previously had EDTA-K2 added thereto as an anticoagulant. Each blood sample was centrifuged at 6800 g at a low temperature for 6 minutes, and plasma was collected and stored at −80° C.
Sample preparation for LC-MS/MS assay: 20 μL of the plasma sample was subjected to protein precipitation using 400 μL of methanol containing 100 ng/mL of IS (tolbutamide). The mixture was vortexed for 1 minute and then centrifuged at 18000 g for 7 minutes. 400 μL of the supernatant was transferred to a 96-well plate. 2 μL of the supernatant were subjected to LC-MS/MS analysis.

By inhibition is commonly meant the change of the read-out against control, counted positive when it falls. By AUC(0-t) is commonly meant the area under the concentration-time curve up to a stated or last time point. Read a low AUC(0-t) as less exposure. As usually defined, the Cmax is the highest concentration seen after dosing. As usually defined, the Tmax is the time at which the peak concentration occurs. What is called half-life is the time needed for the level to fall by half in the phase considered. Low values mean rapid decline, high ones slow decline. Usually bioavailability stands for dose-corrected exposure relative to a reference, in per cent. High values mean good availability, low ones poor availability.

SMILES strings stand for the structures.

T1 sequence (Q9Y5Y9 whole entry): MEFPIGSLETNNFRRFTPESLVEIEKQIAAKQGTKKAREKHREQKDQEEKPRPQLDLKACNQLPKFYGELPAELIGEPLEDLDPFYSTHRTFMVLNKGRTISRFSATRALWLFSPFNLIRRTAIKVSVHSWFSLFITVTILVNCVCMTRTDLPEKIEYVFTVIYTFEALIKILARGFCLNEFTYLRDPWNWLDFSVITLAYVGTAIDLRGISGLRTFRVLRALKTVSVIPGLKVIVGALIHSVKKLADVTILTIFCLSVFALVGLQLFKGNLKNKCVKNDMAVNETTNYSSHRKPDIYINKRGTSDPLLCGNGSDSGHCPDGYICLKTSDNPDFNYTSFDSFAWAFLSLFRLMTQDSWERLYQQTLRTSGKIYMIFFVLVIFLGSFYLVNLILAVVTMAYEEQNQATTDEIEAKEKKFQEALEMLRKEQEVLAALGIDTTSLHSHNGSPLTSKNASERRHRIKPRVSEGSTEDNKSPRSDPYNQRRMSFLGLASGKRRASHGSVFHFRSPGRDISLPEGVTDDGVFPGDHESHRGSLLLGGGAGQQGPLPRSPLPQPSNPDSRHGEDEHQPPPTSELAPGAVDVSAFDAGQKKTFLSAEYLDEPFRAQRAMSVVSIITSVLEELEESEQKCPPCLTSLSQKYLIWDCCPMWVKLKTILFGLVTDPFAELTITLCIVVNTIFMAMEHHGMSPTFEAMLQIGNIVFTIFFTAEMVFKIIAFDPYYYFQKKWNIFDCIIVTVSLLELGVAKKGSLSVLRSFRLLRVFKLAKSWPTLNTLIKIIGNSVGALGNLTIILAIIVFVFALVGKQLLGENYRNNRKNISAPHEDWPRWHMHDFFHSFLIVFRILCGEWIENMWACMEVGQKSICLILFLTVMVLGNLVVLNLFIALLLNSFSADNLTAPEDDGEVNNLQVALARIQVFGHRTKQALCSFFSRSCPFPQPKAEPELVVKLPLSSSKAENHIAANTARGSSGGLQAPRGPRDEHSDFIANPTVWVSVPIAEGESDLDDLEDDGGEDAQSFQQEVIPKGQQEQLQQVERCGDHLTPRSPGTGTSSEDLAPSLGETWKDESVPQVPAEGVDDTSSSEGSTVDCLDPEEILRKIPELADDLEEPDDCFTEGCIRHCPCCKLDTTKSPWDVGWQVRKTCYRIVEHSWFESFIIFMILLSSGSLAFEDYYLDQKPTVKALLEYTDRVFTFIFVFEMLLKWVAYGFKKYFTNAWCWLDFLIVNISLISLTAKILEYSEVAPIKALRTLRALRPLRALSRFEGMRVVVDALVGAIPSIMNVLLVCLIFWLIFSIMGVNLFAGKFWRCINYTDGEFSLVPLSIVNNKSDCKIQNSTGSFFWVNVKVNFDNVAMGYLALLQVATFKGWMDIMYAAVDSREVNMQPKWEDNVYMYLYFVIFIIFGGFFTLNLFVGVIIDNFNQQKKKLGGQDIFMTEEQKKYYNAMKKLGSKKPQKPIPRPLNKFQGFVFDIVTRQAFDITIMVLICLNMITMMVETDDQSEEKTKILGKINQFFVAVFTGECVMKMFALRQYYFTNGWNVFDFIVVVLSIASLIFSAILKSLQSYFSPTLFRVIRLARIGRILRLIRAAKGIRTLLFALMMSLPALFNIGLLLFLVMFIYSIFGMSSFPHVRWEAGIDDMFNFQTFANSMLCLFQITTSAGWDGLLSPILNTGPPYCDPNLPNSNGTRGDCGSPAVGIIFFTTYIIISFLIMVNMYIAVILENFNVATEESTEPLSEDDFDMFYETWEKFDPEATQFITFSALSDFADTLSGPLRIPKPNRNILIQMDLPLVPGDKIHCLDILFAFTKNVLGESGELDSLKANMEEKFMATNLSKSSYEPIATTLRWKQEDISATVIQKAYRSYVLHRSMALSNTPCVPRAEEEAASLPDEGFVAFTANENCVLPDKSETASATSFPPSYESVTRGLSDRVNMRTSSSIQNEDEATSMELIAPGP

For the compound `CNCCNS(=O)(=O)c1cc(NC(=O)c2cc(Cl)c(C(F)(F)F)cc2Oc2ccc(F)cc2C)ccn1` [Compound 1, 5-chloro-2-(4-fluoro-2-methylphenoxy)-N-(2-(N-(2-(methylamino)ethyl)sulfamoyl)pyridin-4-yl)-4-(trifluoromethyl)benzamide], in data set [1], the inhibition at 0.01 µM stood at 59.8% and the inhibition at 0.1 µM was 91.3%.
Regarding `Cc1cc(F)ccc1Oc1cc(C(F)(F)F)c(Cl)cc1C(=O)Nc1ccnc(S(=O)(=O)N[C@@H]2CCNC2)c1` [Compound 2, (R)-5-chloro-2-(4-fluoro-2-methylphenoxy)-N-(2-(N-(pyrrolidin-3-yl)sulfamoyl)pyridin-4-yl)-4-(trifluoromethyl)benzamide], in data set [1], the inhibition at 0.01 µM stood at 84.5% and the inhibition at 0.1 µM is 100%.
On to `Cc1cc(F)ccc1Oc1cc(C(F)(F)F)c(Cl)cc1C(=O)Nc1ccnc(S(=O)(=O)N[C@H]2CCNC2)c1` [Compound 3, (S)-5-chloro-2-(4-fluoro-2-methylphenoxy)-N-(2-(N-(pyrrolidin-3-yl)sulfamoyl)pyridin-4-yl)-4-(trifluoromethyl)benzamide], for which, in data set [1], the inhibition at 0.01 µM is 92% and the inhibition at 0.1 µM is 98.4%.
Take `Cc1cc(F)ccc1Oc1cc(C(F)(F)F)c(Cl)cc1C(=O)Nc1ccnc(S(=O)(=O)NC2CCNCC2)c1` [Compound 4, 5-chloro-2-(4-fluoro-2-methylphenoxy)-N-(2-(N-(piperidin-4-yl)sulfamoyl)pyridin-4-yl)-4-(trifluoromethyl)benzamide]: in data set [1], the inhibition at 0.01 µM came out at 84.9% and the inhibition at 0.1 µM was found to be 96.1%.
For the compound `Cc1cc(F)ccc1Oc1cc(C(F)(F)F)c(Cl)cc1C(=O)Nc1ccnc(S(=O)(=O)NCC2CCNCC2)c1` [Compound 5, 5-chloro-2-(4-fluoro-2-methylphenoxy)-N-(2-(N-(piperidin-4-ylmethyl)sulfamoyl)pyridin-4-yl)-4-(trifluoromethyl)benzamide], in data set [1], the inhibition at 0.01 µM is 78.5% and the inhibition at 0.1 µM was determined as 96.8%.
Turning to `Cc1cc(F)ccc1Oc1cc(C(F)(F)F)c(Cl)cc1C(=O)Nc1ccnc(S(=O)(=O)NC[C@@H]2CCNC2)c1` [Compound 6, (R)-5-chloro-2-(4-fluoro-2-methylphenoxy)-N-(2-(N-(pyrrolidin-3-ylmethyl)sulfamoyl)pyridin-4-yl)-4-(trifluoromethyl)benzamide], in data set [1], the inhibition at 0.01 µM came out at 71.3% and the inhibition at 0.1 µM was found to be 98.1%.
Take `Cc1cc(F)ccc1Oc1cc(C(F)(F)F)c(Cl)cc1C(=O)Nc1ccnc(S(=O)(=O)NC[C@H]2CCNC2)c1` [Compound 7, (S)-5-chloro-2-(4-fluoro-2-methylphenoxy)-N-(2-(N-(pyrrolidin-3-ylmethyl)sulfamoyl)pyridin-4-yl)-4-(trifluoromethyl)benzamide]: in data set [1], the inhibition at 0.01 µM was 91.5% and the inhibition at 0.1 µM was 97.1%.
With `CCN1CC[C@H](NS(=O)(=O)c2cc(NC(=O)c3cc(Cl)c(C(F)(F)F)cc3Oc3ccc(F)cc3C)ccn2)C1` [Compound 8], in data set [1], the inhibition at 0.01 µM amounted to 68.6% and the inhibition at 0.1 µM came out at 93%.
Take `CCCN1CC[C@H](NS(=O)(=O)c2cc(NC(=O)c3cc(Cl)c(C(F)(F)F)cc3Oc3ccc(F)cc3C)ccn2)C1` [Compound 9, (S)-5-chloro-2-(4-fluoro-2-methylphenoxy)-N-(2-(N-(1-propylpyrrolidin-3-yl)sulfonamido)pyridin-4-yl)-4-(trifluoromethyl)benzamide]: in data set [1], the inhibition at 0.01 µM stood at 60.1% and the inhibition at 0.1 µM was 95.2%.
In the same order, the values of `Cc1cc(F)ccc1Oc1cc(C(F)(F)F)c(Cl)cc1C(=O)Nc1ccnc(S(=O)(=O)N[C@H]2CCN(CCF)C2)c1` [Compound 10, (S)-5-chloro-2-(4-fluoro-2-methylphenoxy)-N-(2-(N-(1-(2-fluoroethyl)pyrrolidin-3-yl)sulfamoyl)pyridin-4-yl)-4-(trifluoromethyl)benzamide] are 46.2% and 83.4%.
For the compound `CCN1CC[C@@H](NS(=O)(=O)c2cc(NC(=O)c3cc(Cl)c(C(F)(F)F)cc3Oc3ccc(F)cc3C)ccn2)C1` [Compound 11], in data set [1], the inhibition at 0.01 µM is 80.5% and the inhibition at 0.1 µM came to 97.8%.
On to `CCCN1CC[C@@H](NS(=O)(=O)c2cc(NC(=O)c3cc(Cl)c(C(F)(F)F)cc3Oc3ccc(F)cc3C)ccn2)C1` [Compound 12, (R)-5-chloro-2-(4-fluoro-2-methylphenoxy)-N-(2-(N-(1-propylpyrrolidin-3-yl)sulfamoyl)pyridin-4-yl)-4-(trifluoromethyl)benzamide], for which, in data set [1], the inhibition at 0.01 µM turned out to be 71.5% and the inhibition at 0.1 µM came out at 97.9%.
Turning to `Cc1cc(F)ccc1Oc1cc(C(F)(F)F)c(Cl)cc1C(=O)Nc1ccnc(S(C)(=N)=O)c1` (stereo not shown) [Compound 13, 5-chloro-2-(4-fluoro-2-methylphenoxy)-N-(2-(S-methyliminosulfonyl)pyridin-4-yl)-4-(trifluoromethyl)benzamide], in data set [1], the inhibition at 0.01 µM was determined as 52.4% and the inhibition at 0.1 µM stood at 97.2%. In addition, in data set [2] (iv, 1 mg/kg), the AUC(0-t) is 2240 ng·h/mL, the highest level (Cmax) was 496 ng/mL, the Tmax was determined as 0.08 h and the Vd amounted to 2.48 L/kg. In data set [2] (iv, 1 mg/kg), the clearance amounted to 7.52 mL/min/kg and the half-life was 3.88 h. Moreover, in data set [2] (po, 10 mg/kg), the AUC(0-t) came to 18600 ng·h/mL, the Cmax is 1840 ng/mL, the Tmax worked out at 2.67 h and the bioavailability worked out at 83.2%. In data set [2] (po, 10 mg/kg), this compound had a half-life of 3.85 h.
With `[2H]C([2H])([2H])Oc1cc(OC(F)(F)F)ccc1Oc1cc(C(F)(F)F)c(Cl)cc1C(=O)Nc1ccnc(S(C)(=N)=O)c1` (stereo not shown) [Compound 15, 5-chloro-2-(2-(methoxy-d3)-4-(trifluoromethoxy)phenoxy)-N-(2-(S-methyliminosulfonyl)pyridin-4-yl)-4-(trifluoromethyl)benzamide], in data set [1], the inhibition at 0.01 µM amounted to 86.3% and the inhibition at 0.1 µM was 99.3%.
Consider `CS(=N)(=O)c1cc(NC(=O)c2cc(Cl)c(C(F)(F)F)cc2N2CCCC(F)(F)CC2)ccn1` (stereo not shown) [Compound 17, 5-chloro-2-(4,4-difluoroazepan-1-yl)-N-(2-(S-methyliminosulfonyl)pyridin-4-yl)-4-(trifluoromethyl)benzamide], for which, in data set [1], the inhibition at 0.01 µM worked out at 71.9% and the inhibition at 0.1 µM turned out to be 96.5%.
Regarding `Cc1cc(F)ccc1Oc1cc(C(F)(F)F)c(Cl)cc1C(=O)Nc1cnnc(S(C)(=N)=O)c1` (stereo not shown) [Compound 20, 5-chloro-2-(4-fluoro-2-methylphenoxy)-N-(6-(S-methyliminosulfonyl) 76 yridazine-4-yl)-4-(trifluoromethyl)benzamide], in data set [1], the inhibition at 0.01 µM worked out at 46.8% and the inhibition at 0.1 µM amounted to 86.5%.
Consider `[2H]C([2H])([2H])Oc1cc(F)ccc1Oc1cc(C(F)(F)F)c(Cl)cc1C(=O)Nc1ccc(F)c(S(C)(=N)=O)c1` (stereo not shown) [Compound 24, 5-chloro-2-(4-fluoro-2-(methoxy-d3)phenoxy)-N-(4-fluoro-3-(S-methyliminosulfonyl)phenyl)-4-(trifluoromethyl)benzamide], for which, in data set [1], the inhibition at 0.01 µM came to 83.9% and the inhibition at 0.1 µM amounted to 99%.
In the same order, the values of `[2H]C([2H])([2H])Oc1cc(OC(F)(F)F)ccc1Oc1cc(C(F)(F)F)c(Cl)cc1C(=O)Nc1ccc(F)c(S(C)(=N)=O)c1` (stereo not shown) [Compound 25, 5-chloro-N-(4-fluoro-3-(S-methyliminosulfonyl)phenyl)-2-(2-(methoxy-d3)-4-(trifluoromethoxy)phenoxy)-4-(trifluoromethyl)benzamide] are 82% and 95.5%.
`CS(=N)(=O)c1cc(NC(=O)c2cc(Cl)c(C(F)(F)F)cc2N2CCCC(F)(F)CC2)ccc1F` (stereo not shown) [Compound 27, 5-chloro-2-(4,4-difluoroazepan-1-yl)-N-(4-fluoro-3-(S-methyliminosulfonyl)phenyl)-4-(trifluoromethyl)benzamide]: in data set [1], the inhibition at 0.01 µM came out at 75.1% and the inhibition at 0.1 µM was determined as 96%.
